# Experimental data reported in patent US9227971B2, “Pyrazolo[1,5-a]pyrimidine compounds as mTOR inhibitors” (Merck Sharp & Dohme Corp., priority 2010, dated 2016).
# Like-named read-outs stand apart in the source and are kept apart here.
# Tests used:
# [1] = tested on: phosphorylated AKT Ser473 (pAKT S473), mTORC2 activity, PC3 cells; assay: mTOR target engagement assay, immunofluorescent cell-based, pAKT S473 readout (mTORC2 activity)
# Summary of the method: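 After blocking, cells were stained overnight at 4 °C with anti-pAKT S473 antibody, then a fluorescent secondary; inhibition was read as reduced fluorescence intensity.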
# [2] = tested on: phosphorylated 4E-BP1 Thr37/46 (p4E-BP1 Thr37/46), mTORC1 activity, PC3 cells; assay: mTOR target engagement assay, immunofluorescent cell-based, p4E-BP1 Thr37/46 readout (mTORC1 activity); conditions: read-out: p4E-BP1 Thr37/46 IC50
# Experimental: The target engagement of mTOR kinase inhibitors was evaluated using an immunofluorescent cell-based assay. In this assay, inhibition of mTORC1 activity was measured by the reduction in the level of phosphorylated 4E-BP1^[…] (p4E-BP1 Thr37/46), and inhibition of mTORC2 activity was measured by the reduction of phosphorylated AKT^Ser473 (pAKT S473).
# PC3 cells (prostate tumor cell-line that contains a mutation in the tumor suppressor PTEN, that promotes the phosphorylation and activation of AKT and 4E-BP1) were used in the immunofluorescence assay. PC3 cells were seeded on 384 well plates (black clear bottom, Matrix #4332) overnight. PC3 cells were then treated with 40 μl of the serially diluted test compounds (in 5% fetal bovine serum, F12 medium containing 0.25% DMSO) for ninety minutes at 37° C. The test compound solution was removed, and the plates were washed gently two times with 25 μl phosphate buffered saline (PBS). The cells were fixed by adding 25 μl of Prefer reagent (from Anatech LTD, Cat#414, a glyoxal fixative for fixing proteins within a cell) for sixty minutes followed by three washes with PBS. 5% Goat serum in PBS/0.3% Triton was used to block non-specific binding (60 minutes).
# The primary antibodies targeting pAKT S473 and p4E-BP1 Thr37/46 were diluted into PBS/0.3% Triton and incubated with the cells overnight at 4° C. The antibodies targeting pAKTS473 (Cat#4085, Cell signaling) and p4E-BP1 Thr37/46 (Cat#2855, Cell signaling) were used at a 1:100 dilution. Plates were washed three times with PBS/0.1% Tween 20 before adding the secondary antibody at a 1:200 dilution. (goat anti-rabbit containing a fluorescent label, Alexa Fluor 488, Cat#A11008, Invitrogen) in PBS/0.3% Triton for 60 minutes.
# Finally, the plates were washed three times with PBS/0.1% Tween 20 and the fluorescent intensity was read using an Analyst HT from Molecular Devices. The fluorescent intensity values from the serially diluted compound treatment group were analyzed using the Xlfit 4 program ([…]) (Formula 205: Y=Bottom+(Top-Bottom)/(1+(IC50/X)^Hillslope) to generate the IC50 value. Where Top is the maximum signal without Compound (+DMSO only) and Bottom represents maximum inhibition. Y is the fluorescence at some compound concentration. The control used to determine the fluorescent intensities for 100% pAKT S473 or 100% phosphorylated p4E-BP1 Thr37/46 were measured from untreated wells that contained only DMSO, instead of test compound.
# [3] = Homo sapiens, PC-3, PC3 cells, compound treatment ninety minutes at 37° C.
# [4] = Homo sapiens, PC-3, Table 3-1, PC3 cells
# [5] = Homo sapiens, PC-3, Table 6-1, PC3 cells
compound,measurement,setting,value
"NC(=O)N1[C@@H]2CC[C@H]1C[C@H](c1nc3c(-c4ccc(-c5ccccc5)nc4)cnn3c(N)c1C1CC1)C2 [Compound 4.6, (1R,3s,5S)-3-(7-amino-6-cyclopropyl-3-(6-phenylpyridin-3-yl)pyrazolo[1,5a]pyrimidin-5-yl)-8-azabicyclo[3.2.1]octane-8-carboxamide]",IC50,[1]; [3],1 to 100 nM
same,IC50,[2]; [3],1 to 100 nM
"Nc1cc([C@@H]2C[C@H]3CC[C@@H](C2)N3C(=O)c2nnc[nH]2)nc2c(-c3ccc4[nH]ncc4c3)cnn12 [Compound 2.12, ((1R,3s,5S)-3-(7-amino-3-(1H-indazol-5-yl)pyrazolo[1,5-a]pyrimidin-5-yl)-8-azabicyclo[3.2.1]octan-8-yl)(1H-1,2,4-triazol-5-yl)methanone]",IC50,[1]; [3],> 10000 nM
same,IC50,[2]; [3],> 10000 nM
"CS(=O)(=O)c1c([C@@H]2C[C@H]3CC[C@@H](C2)N3C(=O)[C@H]2COC(=O)N2)nc2c(-c3ccc(-c4ccccc4)nc3)cnn2c1N [Compound 3.142, (R)-4-((1R,3S,5S)-3-(7-amino-6-(methylsulfonyl)-3-(6-phenylpyridin-3-yl)pyrazolo[1,5-a]pyrimidin-5-yl)-8-azabicyclo[3.2.1]octane-8-carbonyl)oxazolidin-2-one]",IC50,[1]; [4],100 to 1000 nM
same,IC50,[2]; [4],100 to 1000 nM
"CC(=O)c1c([C@@H]2C[C@H]3CC[C@@H](C2)N3C(=O)c2nnc(C)[nH]2)nc2c(-c3ccc(-c4ccccc4F)nc3)cnn2c1N [Compound 1.1.173, 1-(7-amino-3-(6-(2-fluorophenyl)pyridin-3-yl)-5-((1R,3s,5S)-8-(5-methyl-4H-1,2,4-triazole-3-carbonyl)-8-azabicyclo[3.2.1]octan-3-yl)pyrazolo[1,5-a]pyrimidin-6-yl)ethanone]",IC50,[1]; [3],1 to 100 nM
same,IC50,[2]; [3],1 to 100 nM
"CC(=O)c1c([C@@H]2C[C@H]3CC[C@@H](C2)N3C(=O)c2nnc[nH]2)nc2c(-c3cncc(CO)c3)cnn2c1N [Compound 1.1.184, 1-(5-((1R,3s,5S)-8-(4H-1,2,4-triazole-3-carbonyl)-8-azabicyclo[3.2.1]octan-3-yl)-7-amino-3-(5-(hydroxymethyl)pyridin-3-yl)pyrazolo[1,5-a]pyrimidin-6-yl)ethanone]",IC50,[1]; [3],100 to 1000 nM
same,IC50,[2]; [3],100 to 1000 nM
"CC(=O)Nc1ccc(-c2cnn3c(N)c(C(C)=O)c([C@@H]4C[C@H]5CC[C@@H](C4)N5C(=O)c4ncn[nH]4)nc23)cn1 [Compound 8.76, N-(5-(5-((1R,3s,5S)-8-(1H-1,2,4-triazole-5-carbonyl)-8-azabicyclo[3.2.1]octan-3-yl)-6-acetyl-7-aminopyrazolo[1,5-a]pyrimidin-3-yl)pyridin-2-yl)acetamide]",IC50,"[1]; Homo sapiens, PC-3, PC3 cells",1 to 100 nM
same,IC50,"[2]; Homo sapiens, PC-3, PC3 cells",1 to 100 nM
"COc1c(F)cc(-c2ccc(-c3cnn4c(N)c(S(C)(=O)=O)c([C@@H]5C[C@H]6CC[C@@H](C5)N6C(=O)c5nnc[nH]5)nc34)cn2)cc1F [Compound 3.49, ((1R,3s,5S)-3-(7-amino-3-(6-(3,5-difluoro-4-methoxyphenyl)pyridin-3-yl)-6-(methylsulfonyl)pyrazolo[1,5-a]pyrimidin-5-yl)-8-azabicyclo[3.2.1]octan-8-yl)(4H-1,2,4-triazol-3-yl)methanone]",IC50,[1]; [4],100 to 1000 nM
same,IC50,[2]; [4],100 to 1000 nM
"CC(=O)c1c([C@@H]2C[C@H]3CC[C@@H](C2)N3C(=O)CO)nc2c(-c3ccc(-c4ccn(CF)n4)nc3)cnn2c1N [Compound 1.1.87, 1-((1R,3s,5S)-3-(6-acetyl-7-amino-3-(6-(1-(fluoromethyl)-1H-pyrazol-3-yl)pyridin-3-yl)pyrazolo[1,5-a]pyrimidin-5-yl)-8-azabicyclo[3.2.1]octan-8-yl)-2-hydroxyethanone]",IC50,[1]; [3],1 to 100 nM
same,IC50,[2]; [3],1 to 100 nM
"Nc1c(C2CC2)c([C@@H]2C[C@H]3CC[C@@H](C2)N3C(=O)c2cc[nH]c2)nc2c(-c3ccc(-c4ncc[nH]4)nc3)cnn12 [Compound 6.14, ((1R,3s,5S)-3-(3-(6-(1H-imidazol-2-yl)pyridin-3-yl)-7-amino-6-cyclopropylpyrazolo [1,5-a]pyrimidin-5-yl)-8-azabicyclo[3.2.1]octan-8-yl)(1H-pyrrol-3-yl)methanone]",IC50,[1]; [5],1 to 100 nM
same,IC50,[2]; [5],100 to 1000 nM
"CC(=O)c1c([C@@H]2C[C@H]3CC[C@@H](C2)N3C(=O)c2nnc[nH]2)nc2c(-c3cnn(C)c3)cnn2c1N [Compound 1.1.151, 1-(5-((1R,3s,5S)-8-(4H-1,2,4-triazole-3-carbonyl)-8-azabicyclo[3.2.1]octan-3-yl)-7-amino-3-(1-methyl-1H-pyrazol-4-yl)pyrazolo[1,5-a]pyrimidin-6-yl)ethanone]",IC50,[1]; [3],100 to 1000 nM
same,IC50,[2]; [3],100 to 1000 nM
"CC(=O)c1c([C@@H]2C[C@H]3CC[C@@H](C2)N3C(=O)CO)nc2c(-c3ccc(-c4ncc[nH]4)cc3)cnn2c1N [Compound 6.42, 1-((1R,3s,5S)-3-(3-(4-(1H-imidazol-2-yl)phenyl)-6-acetyl-7-aminopyrazolo[1,5-a]pyrimidin-5-yl)-8-azabicyclo[3.2.1]octan-8-yl)-2-hydroxyethanone]",IC50,[1]; [5],1 to 100 nM
same,IC50,[2]; [5],1 to 100 nM
"CC(=O)c1c([C@@H]2C[C@H]3CC[C@@H](C2)N3C(=O)c2cc[nH]n2)nc2c(-c3ccc(C(C)(C)O)nc3)cnn2c1N [Compound 7.11, 1-(5-((1R,3s,5S)-8-(1H-pyrazole-3-carbonyl)-8-azabicyclo[3.2.1]octan-3-yl)-7-amino-3-(6-(2-hydroxypropan-2-yl)pyridin-3-yl)pyrazolo[1,5-a]pyrimidin-6-yl)ethanone]",IC50,[1]; [3],1 to 100 nM
same,IC50,[2]; [3],100 to 1000 nM
"COc1ccc(-c2ccc(-c3cnn4c(N)c(S(C)(=O)=O)c([C@@H]5C[C@H]6CC[C@@H](C5)N6C(=O)c5nnc[nH]5)nc34)cn2)cc1C#N [Compound 3.92, 5-(5-(5-((1R,3s,5S)-8-(4H-1,2,4-triazole-3-carbonyl)-8-azabicyclo[3.2.1]octan-3-yl)-7-amino-6-(methylsulfonyl)pyrazolo[1,5-a]pyrimidin-3-yl)pyridin-2-yl)-2-methoxybenzonitrile]",IC50,[1]; [4],100 to 1000 nM
same,IC50,[2]; [4],100 to 1000 nM
"COc1ncc(-c2ccc(-c3cnn4c(N)c(S(C)(=O)=O)c([C@@H]5C[C@H]6CC[C@@H](C5)N6C(=O)c5nnc[nH]5)nc34)cn2)cn1 [Compound 3.58, ((1R,3s,5S)-3-(7-amino-3-(6-(2-methoxypyrimidin-5-yl)pyridin-3-yl)-6-(methylsulfonyl)pyrazolo[1,5-a]pyrimidin-5-yl)-8-azabicyclo[3.2.1]octan-8-yl)(4H-1,2,4-triazol-3-yl)methanone]",IC50,"[1]; Table 3-1, PC3 cells",1000 to 10000 nM
same,IC50,"[2]; Table 3-1, PC3 cells",1000 to 10000 nM
"CS(=O)(=O)c1c([C@@H]2C[C@H]3CC[C@@H](C2)N3C(=O)c2nnn[nH]2)nc2c(-c3ccc(-c4ccccc4)nc3)cnn2c1N [Compound 3.5, ((1R,3s,5S)-3-(7-amino-6-(methylsulfonyl)-3-(6-phenylpyridin-3-yl)pyrazolo[1,5-a]pyrimidin-5-yl)-8-azabicyclo[3.2.1]octan-8-yl)(1H-tetrazol-5-yl)methanone]",IC50,[1]; [4],1000 to 10000 nM
same,IC50,[2]; [4],> 10000 nM
"CS(=O)(=O)c1c([C@@H]2C[C@H]3CC[C@@H](C2)N3C(=O)c2nnc(O)[nH]2)nc2c(-c3ccc(-c4ccccc4)nc3)cnn2c1N [Compound 3.29, ((1R,3s,5S)-3-(7-amino-6-(methylsulfonyl)-3-(6-phenylpyridin-3-yl)pyrazolo[1,5-a]pyrimidin-5-yl)-8-azabicyclo[3.2.1]octan-8-yl)(5-hydroxy-4H-1,2,4-triazol-3-yl)methanone]",IC50,[1]; [4],100 to 1000 nM
same,IC50,[2]; [4],100 to 1000 nM
"Nc1c(C2CC2)c([C@@H]2C[C@H]3CC[C@@H](C2)N3C(=O)CO)nc2c(-c3ccc(C4(O)CCC4)nc3)cnn12 [Compound 7.72, 1-((1R,3s,5S)-3-(7-amino-6-cyclopropyl-3-(6-(1-hydroxycyclobutyl)pyridin-3-yl)pyrazolo[1,5-a]pyrimidin-5-yl)-8-azabicyclo[3.2.1]octan-8-yl)-2-hydroxyethanone]",IC50,"[1]; Homo sapiens, PC-3, PC3 cells",100 to 1000 nM
same,IC50,"[2]; Homo sapiens, PC-3, PC3 cells",100 to 1000 nM
